Where a SMILES comes first, the peptide text is derived from it.
What was measured:
[1] = tested on: cisplatin‐resistant cancer cells; assay: Growth inhibition in cisplatin‐resistant cancer cells; assay type: cell-based, human; conditions: cisplatin‐resistant variants of Hep3B, HCT116, MDA‐MB‐231
Experimental: Information of the cell lines is listed in Table S1 (Supporting Information), including their origin and culture conditions. All cell lines were cultured at 37 °C, 5% CO2 incubator. MDA‐MB‐231 (LM1), HepG2, Hep3B, and HCT116 cell lines were authenticated with short tandem repeat markers based on ATCC information. All cell lines tested negative for mycoplasma contamination. Transient downregulation of the gene of interest was conducted by siRNA transfection using Lipofectamine 2000 (Thermo Fisher, 11668019) according to the manufacturer's instructions. Information about siRNAs is provided in Table S2 (Supporting Information). […] For erythroid terminal differentiation experiments, differentiation was assessed by hemoglobin staining using a 0.2% (w/v) tetramethylbenzidine solution (Sigma–Aldrich, T0440) in 0.6% hydrogen peroxide, 3% acetic acid for 10 min in dark condition. Benzidine‐positive or negative cell numbers were counted under the inverted microscope BX50 (Olympus) at 200 × magnification. […] After each synchronization, cells were fixed at 4‐h intervals for 24 h with ACP52C treatment, and the cell cycle was analyzed by Propidium Iodide (PI) staining or intracellular protein was analyzed by immunofluorescence. […] This development period was repeated four times for one round, after which GI50 concentrations were re‐assessed in each resistant cell line. […]

CP2c complexes = CP2c complexes (Homo sapiens, UniProt Q12800); assay: In vitro IP and pulldown assays of CP2c complexes; assay type: biochemical; conditions: regardless of the presence of probe DNA
Experimental: Cells were lysed with lysis buffer (50 mM Tris‐HCl, pH 7.4, 150 mM NaCl, 1 mM EDTA, 0.1% triton X‐100, and 1 mM PMSF) with freshly added 1 mM DTT and a protease inhibitor cocktail. Input samples (10% of whole lysate) were saved from each lysate for WB analysis. For immunoprecipitation, precleared extracts were incubated overnight at 4 °C with 10 µL Protein A/G agarose beads, pre‐incubated with 2 µg of the primary antibodies (Table S4, Supporting Information). The immune complexes were washed 3 times with lysis buffer, and bound proteins were eluted with 2X bed volume of 0.2 M glycine buffer, followed by neutralization with an equal volume of 1 M Tris‐HCl, pH 8.0. For Flag tag immunoprecipitation, precleared extracts were incubated with 2 µL of Flag‐M2 beads (Sigma–Aldrich, A2220) by rotating overnight at 4 °C. The immune complexes were washed 3 times with lysis buffer, bound proteins were eluted with 100 µg mL^−1 Flag peptide (Sigma–Aldrich, F4799). Precipitated proteins were analyzed using western blot.
Biotinylated‐DNA fragments or ‐peptides and GST‐fused CP2c, whole‐ or nuclear‐ extracts of MDA‐MB‐231 cells were used for the analyze the interaction of peptide or DNA with CP2c. Nuclear extracts were extracted by the method described elsewhere.^[ [14] ^] […] The radioactivity of the eluted probe was measured by scintillation counting. […]

Chain of CP2c complexes (Q12800 whole entry, one chain of several): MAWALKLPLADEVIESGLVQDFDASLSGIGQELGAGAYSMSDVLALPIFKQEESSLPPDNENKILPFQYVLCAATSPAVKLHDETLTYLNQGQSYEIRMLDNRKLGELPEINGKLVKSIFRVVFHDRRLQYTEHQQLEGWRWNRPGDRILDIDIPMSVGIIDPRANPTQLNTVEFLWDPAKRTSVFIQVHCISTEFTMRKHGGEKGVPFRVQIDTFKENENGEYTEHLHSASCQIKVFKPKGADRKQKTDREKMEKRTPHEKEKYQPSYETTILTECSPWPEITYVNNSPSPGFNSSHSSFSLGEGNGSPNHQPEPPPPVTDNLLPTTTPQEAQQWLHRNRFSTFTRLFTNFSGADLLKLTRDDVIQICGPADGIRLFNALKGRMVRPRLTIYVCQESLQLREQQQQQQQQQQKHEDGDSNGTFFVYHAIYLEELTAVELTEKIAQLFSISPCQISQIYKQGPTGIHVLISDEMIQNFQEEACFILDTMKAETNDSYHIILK

Row | SMILES | anticancer activity in cisplatin‐resistant cells [1] | dissociation of CP2c complexes (CP2c complexes)
1 | CC(=O)N[C@@H](CC(N)=O)C(=O)N[C@@H](Cc1ccc(O)cc1)C(=O)N1CCC[C@H]1C(=O)N[C@@H](CCC(N)=O)C(=O)N[C@@H](CCCNC(=N)N)C(=O)N1CCC[C@H]1C(=O)N[C@@H](CS)C(=O)N[C@@H](CCCNC(=N)N)C(=O)NCC(=O)N[C@@H](CC(=O)O)C(=O)N[C@@H](CCCCN)C(=O)NCC(=O)N1CCC[C@H]1C(=O)N[C@@H](CC(=O)O)C(=O)N[C@@H](CS)C(N)=O [ACP52C] (Ac-NYPQRPCRGDKGPDC-NH2) | effectiveness in targeting cisplatin‐resistant cancer cells | 
2 | CCOc1ccccc1C1CC(=O)Nc2cc3c(cc21)OCO3 (centres unmarked) [FQI1, Factor Quinolinone Inhibitor 1, reference compound] |  | only slight perturbation of CP2c complexes

Source: article PMC10667816, “A Cell‐Penetrant Peptide Disrupting the Transcription Factor CP2c Complexes Induces Cancer‐Specific Synthetic Lethality” (Advanced Science, 2023)
